According to patent US6540792B1, “Cellulose fiber-containing structure” (priority 1999, dated 2003):

Assay: Inorganic value/organic value ratio calculated by the organic concept (Fujita)
Conditions: concluded from the inorganic value/organic value ratio
Description: The “inorganic value/organic value ratio” in this invention is an indicator contrived by Minoru Fujita, to express the polarity of various organic compounds in view of organic concept [see Revised Edition, Science of Chemical Experiments, Organic Chemistry, Kawade shobo (1971)]. For the ratio, the organic value of one carbon (C) atom is decided as 20, and the inorganic and organic values of various polar groups are decided in reference to it, as shown in Table 1. The inorganic value/organic value ratio refers to the ratio of the sum of inorganic values to the sum of organic values.
According to this organic concept, for example, the inorganic value/organic value ratio of polyethylene terephthalate can be calculated as 0.7. In this invention, attention is paid to the affinity between synthetic fibers and an antimicrobial agent based on the value calculated according to the organic concept, and an antimicrobial agent with the inorganic value/organic value ratio kept in a predetermined range is caused to adhere to or to be exhausted and diffused into the synthetic fibers.
For example, in the case of 2,3,5,6-tetrachloro-4-hydroxypyridine, since it has one benzene nucleus, four —Cl groups, one —OH group and one —NR2 group, the inorganic value is 265. On the other hand, since it has five C (carbon) atoms and four —Cl groups, the organic value is 180. […]

Compound: [Na+].[O-][n+]1ccccc1[S-] [2-pyridylthiol-1-oxide sodium]
- affinity to polyesters: poor
